{
  "source": "patent US20050009772A1",
  "about": "“Methods and compositions for the treatment of glaucoma and other retinal diseases” (The Regents of the University of California, priority 2003, published 2005)",
  "key": {"optic nerve axons": {"test_system": "optic nerve axons", "test": "Grading of optic nerve injury in rat glaucoma model (Experiment 2)", "assay_type": "in vivo", "experimental": "GGA was then given twice a week at the same dose until euthanasia. Sustained elevation of intraocular pressure (IOP) was maintained by performing trabecular laser photocoagulation three weeks after the first photocoagulation. […] IOP and body weight were measured once a week. After 5 weeks of IOP elevation, the number of retrogradely labeled RGCs with dextran tetramethylrhodamine (DTMR) was counted (n=53). The grading of optic nerve injury and the counting of cresyl violet-stained cells in the retinal ganglion cell layer (RGCL) was also performed (n=54).\nRats were anesthetized with intramuscular injections of 0.8 ml/kg of the anesthetic cocktail described above. A previously published procedure was modified to produce chronic moderately elevated IOP unilaterally, while the untreated contralateral eye served as the comparative control.40 Animals were injected intracamerally with 10 μl of 35% India ink (Becton Dickinson, Cockeysville, Md.) in 0.01 M PBS after removing a similar volume of aqueous. At the end of the procedure, Tobrex ophthalmic ointment (tobramycin 0.3%; Alcon, Fort Worth, Tex.) was applied topically. Five days after intracameral injection of India ink, a dark band at the limbus was noted due to the aggregation of carbon particles in the trabecular meshwork.38 After anesthesia, approximately 200 laser burns were delivered ab externo to the pigmented trabecular band at laser settings of 200 μm diameter, 200 mW power and 0.2 seconds duration. Three weeks after the first laser treatment, another trabecular laser photocoagulation was performed without further injection of ink.\nTo examine the effect on RGC axons, optic nerve injury was evaluated with an established method.41 After 5 weeks of IOP elevation, deeply anesthetized animals were perfused with a solution of 4% paraformaldehyde and 1% glutaraldehyde. Optic nerve segments […] behind the globe were dissected, washed, postfixed with 5% glutaraldehyde, dehydrated, and embedded. One μm-thick sections were cut and stained with 1% toluidine blue. Optic nerve cross sections were examined under light microscopy and assessed by three independent masked observers. A graded scale of optic nerve injury ranging from 1 (normal) to 5 (total degeneration) was used. Data obtained from three observers were averaged and presented as mean ±SEM."}, "[1]": {"test_system": "retinal ganglion cells (RGCs)", "test": "Density of DTMR-labeled RGCs in rat glaucoma model (Experiment 2)", "assay_type": "in vivo", "experimental": "GGA was then given twice a week at the same dose until euthanasia. Sustained elevation of intraocular pressure (IOP) was maintained by performing trabecular laser photocoagulation three weeks after the first photocoagulation. […] IOP and body weight were measured once a week. […] Rats were anesthetized with intramuscular injections of 0.8 ml/kg of the anesthetic cocktail described above. A previously published procedure was modified to produce chronic moderately elevated IOP unilaterally, while the untreated contralateral eye served as the comparative control.40 Animals were injected intracamerally with 10 μl of 35% India ink (Becton Dickinson, Cockeysville, Md.) in 0.01 M PBS after removing a similar volume of aqueous. At the end of the procedure, Tobrex ophthalmic ointment (tobramycin 0.3%; Alcon, Fort Worth, Tex.) was applied topically. Five days after intracameral injection of India ink, a dark band at the limbus was noted due to the aggregation of carbon particles in the trabecular meshwork.38 After anesthesia, approximately 200 laser burns were delivered ab externo to the pigmented trabecular band at laser settings of 200 μm diameter, 200 mW power and 0.2 seconds duration. Three weeks after the first laser treatment, another trabecular laser photocoagulation was performed without further injection of ink. […] A cross section of the optic nerve was made with the needle knife through the opening of the optic nerve sheath, with care not to damage the adjacent blood supply. DTMR crystals were applied to the proximal cut surface of the optic nerve to label RGCs by fast retrograde axonal transport. After euthanasia and enucleation, the retinas were dissected and flattened with four radial cuts (superotemporal, inferotemporal, superonasal, and inferonasal). They were placed with vitreal side up on glass slides, dried in the dark at room temperature overnight and mounted. The retinas were examined with a fluorescence microscope (Axioplan; Carl Zeiss, Oberkochen, Germany) equipped with a filter that permits visualization of rhodamine fluorescence (excitation filter BP 546, barrier filter LP590; Carl Zeiss). The counting of RGCs was conducted by 2 examiners in a masked fashion. […] Each rectangular area measured 0.475 mm×0.362 mm and the total counted area corresponded to approximately 3.1% of each total retinal area. Data are expressed as number of RGCs per mm2."}, "HSC70": {"test_system": "HSC70", "test": "Western blot for HSC70 in enriched RGC fraction after systemic administration of GGA (Experiment 1)", "assay_type": "in vivo, rat", "conditions": "GGA 200 mg/kg daily i.p. 1, 3, 7 days vs control groups", "experimental": "Three experiments are summarized here, and details are provided in the subsequent sections. […] For Western blotting, twelve rats were equally divided into 6 groups. […] Enriched RGC fraction was harvested from 2 retinas of each group and used for Western blot analysis. The same experiment for isolation of RGCs and Western blotting was repeated with the other 2 retinas-from each group.\nGGA was a gift from Esai Co, Ltd (Tokyo, Japan). […] Saline-vehicle was prepared and administered in the same fashion in vehicle-treated control groups.\nA previously described method was modified to partially purify RGCs from other retinal cells in rat retinas.38 Briefly, two dissected rat retinas from each subgroup were washed in 2.5 ml of calcium- and magnesium-free phosphate buffered saline (PBS) at pH 7.4, and incubated in 1.25 ml of PBS containing 0.5 mg/ml trypsin and 0.01% deoxyribonuclease for 15 minutes at 37° C. […] The cells were then resuspended in 400 μl of MEM buffer, and the protein concentration in the cell suspension was measured with a bicinchoninic acid (BCA) protein assay kit (Pierce, Rockford, Ill.).\nThe membrane was blocked by incubation in 0.1% Tween-20 in 100 mM Tris-buffered saline containing 10% nonfat dried milk for 1 hour. […] The immunoreactive bands were detected by chemiluminescence with an enhanced chemiluminescence Western blot reagent (Amersham Pharmacia)."}, "[2]": {"conditions": "contralateral controls (normal IOP)"}, "[3]": {"conditions": "retinas with IOP elevation, 5 weeks"}},
  "note": "“Also recorded” adds a separate entry of the source.",
  "data": [
    {"substance": "Geranylgeranylacetone [GGA]", "values": [
      {"measurement": "effect on optic nerve injury / axonal damage (in words)", "setting": "optic nerve axons; 5 weeks of IOP elevation", "value": "inhibited; also recorded: significantly ameliorated"},
      {"measurement": "optic nerve injury grade", "setting": "optic nerve axons; 5 weeks of sustained IOP elevation, scale 1 (normal) to 5 (total degeneration)", "value": "1.33±0.05"},
      {"measurement": "optic nerve injury (in words)", "setting": "optic nerve axons; contralateral control eyes", "value": "no statistically significant optic nerve injury"},
      {"measurement": "optic nerve injury grade", "setting": "optic nerve axons; contralateral control eyes, scale 1 to 5", "value": "1.11±0.02"},
      {"measurement": "density of DTMR-labeled RGCs", "setting": "[1]; [2]", "value": "1077±48", "unit": "cells/mm2"},
      {"measurement": "density of DTMR-labeled RGCs vs vehicle-treated controls (in words)", "setting": "[1]; [2]", "value": "no statistical significance"},
      {"measurement": "density of DTMR-labeled RGCs", "setting": "[1]; [3]", "value": "1044±36", "unit": "cells/mm2"},
      {"measurement": "more DTMR-labeled cells preserved compared with vehicle", "setting": "[1]; [3]", "value": 57, "unit": "%"},
      {"measurement": "effect on density of DTMR-labeled RGCs (in words)", "setting": "[1]; retinas with IOP elevation, 5 weeks, quercetin = co-administered with GGA", "value": "higher density; also recorded: partial"},
      {"measurement": "immunoreactivity against HSC70 in RGCs (immunoblot)", "setting": "HSC70", "value": "no change in HSC70 expression; also recorded: no detectable difference"}
    ]}
  ]
}
